Earlier results on one compound are cited in patent US20060014804A1, “Cyanoguanidine prodrugs” (Leo Pharma A/S, priority 2002, published 2006).

Each structure is given as a SMILES string.

Data set [1] has as its system human lung and breast cancer cell lines.
Data set [2] relates to human lung cancer tumour xenograft. The conditions noted are these: nude mice.
For data set [3], the system named is human tumour cells. The conditions noted are these: compared with daunorubicin and paclitaxel.
In data set [4] the test system is normal human endothelial cells.
The subject of data set [5] is human tumour cells. The conditions noted are these: nude mice transplanted with human tumour cells, also paclitaxel-resistant tumour cells.

Turning to `N#CNC(=Nc1ccncc1)NCCCCCCOc1ccc(Cl)cc1` [N-(6-(4-chlorophenoxy)hexyl)-N′-cyano-N″-(4-pyridyl)guanidine], the “antiproliferative activity in vitro” value in data set [1] was “high antiproliferative activity in vitro”. The “antitumour activity in the nude mouse model” value in data set [2] was “potent antitumour activity”. Further, the potency in vitro result in the data set with human tumour cells [3] is “comparable to that of the reference cytostatic agents daunorubicin and paclitaxel”. Further, the “antiproliferative activity on normal human endothelial cells” value in data set [4] is on record as “considerably less antiproliferative activity”. Also, the “antitumour activity in vivo” value in the data set with human tumour cells [5] was “substantial antitumour activity”.
